Data published in PubChem BioAssay (NCI).
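Five concentrations, 48 hours, 96-well plates. GI50 is the concentration that inhibits growth by half. TGI marks complete inhibition of growth.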

Key:
Assay in all cases: NCI anticancer screen, dose series, 48 h; in the data active = GI50 below about 0.43 µM; inactive = the rest
A498 renal = tested on: A498 renal
SK-MEL-2 melanoma = tested on: SK-MEL-2 melanoma
OVCAR-8 ovarian = tested on: OVCAR-8 ovarian
SNB-19 CNS = tested on: SNB-19 CNS
CAKI-1 renal = tested on: CAKI-1 renal
PC-3 prostate = tested on: PC-3 prostate
SF-268 CNS = tested on: SF-268 CNS
MALME-3M melanoma = tested on: MALME-3M melanoma
NCI-H460 lung = tested on: NCI-H460 lung
OVCAR-5 ovarian = tested on: OVCAR-5 ovarian
NCI-H23 lung = tested on: NCI-H23 lung
COLO 205 colon = tested on: COLO 205 colon
ACHN renal = tested on: ACHN renal
786-0 renal = tested on: 786-0 renal
OVCAR-3 ovarian = tested on: OVCAR-3 ovarian
CCRF-CEM leukemia = tested on: CCRF-CEM leukemia
HOP-92 NSCLC = tested on: HOP-92 NSCLC
NCI-H522 lung = tested on: NCI-H522 lung
HT29 colon = tested on: HT29 colon
BT-549 breast = tested on: BT-549 breast
MCF7 breast = tested on: MCF7 breast
IGROV1 ovarian = tested on: IGROV1 ovarian
SF-539 CNS = tested on: SF-539 CNS
M14 melanoma = tested on: M14 melanoma
UACC-62 melanoma = tested on: UACC-62 melanoma
SW-620 colon = tested on: SW-620 colon
UACC-257 melanoma = tested on: UACC-257 melanoma
SR leukemia = tested on: SR leukemia
UO-31 renal = tested on: UO-31 renal
RPMI-8226 leukemia = tested on: RPMI-8226 leukemia
U251 CNS = tested on: U251 CNS
MOLT-4 leukemia = tested on: MOLT-4 leukemia
TK-10 renal = tested on: TK-10 renal
HOP-62 NSCLC = tested on: HOP-62 NSCLC
NCI/ADR-RES ovarian = tested on: NCI/ADR-RES ovarian
SNB-75 CNS = tested on: SNB-75 CNS
SK-MEL-5 melanoma = tested on: SK-MEL-5 melanoma
SN12C renal = tested on: SN12C renal
EKVX NSCLC = tested on: EKVX NSCLC
HCC-2998 colon = tested on: HCC-2998 colon
MDA-MB-231 breast = tested on: MDA-MB-231 breast
K-562 leukemia = tested on: K-562 leukemia
NCI-H226 lung = tested on: NCI-H226 lung
SF-295 CNS = tested on: SF-295 CNS
HCT-116 colon = tested on: HCT-116 colon
A549 NSCLC = tested on: A549 NSCLC
HCT-15 colon = tested on: HCT-15 colon
DU-145 prostate = tested on: DU-145 prostate
MDA-MB-435 = tested on: MDA-MB-435
HL-60(TB) leukemia = tested on: HL-60(TB) leukemia
LOX IMVI melanoma = tested on: LOX IMVI melanoma
KM12 colon = tested on: KM12 colon
OVCAR-4 ovarian = tested on: OVCAR-4 ovarian
SK-MEL-28 melanoma = tested on: SK-MEL-28 melanoma
T-47D breast = tested on: T-47D breast
RXF 393 renal = tested on: RXF 393 renal
SK-OV-3 ovarian = tested on: SK-OV-3 ovarian
HS 578T breast = tested on: HS 578T breast

Cc1ccc2c(c1)Sc1c(ccc3ccccc13)N2
> 100 µM: TGI (A498 renal) | TGI (SK-MEL-2 melanoma) | TGI (OVCAR-8 ovarian) | TGI (SNB-19 CNS) | TGI (CAKI-1 renal) | TGI (PC-3 prostate) | TGI (SF-268 CNS) | TGI (MALME-3M melanoma) | TGI (NCI-H460 lung) | TGI (OVCAR-5 ovarian) | TGI (NCI-H23 lung) | TGI (COLO 205 colon) | TGI (ACHN renal) | TGI (786-0 renal) | TGI (OVCAR-3 ovarian) | TGI (CCRF-CEM leukemia) | TGI (HOP-92 NSCLC) | TGI (NCI-H522 lung) | TGI (HT29 colon) | TGI (BT-549 breast) | TGI (MCF7 breast) | TGI (IGROV1 ovarian) | TGI (SF-539 CNS) | TGI (M14 melanoma) | TGI (UACC-62 melanoma) | TGI (SW-620 colon) | TGI (UACC-257 melanoma) | TGI (SR leukemia) | TGI (UO-31 renal) | TGI (RPMI-8226 leukemia) | TGI (U251 CNS) | TGI (MOLT-4 leukemia) | TGI (TK-10 renal) | TGI (HOP-62 NSCLC) | TGI (NCI/ADR-RES ovarian) | TGI (SNB-75 CNS) | TGI (SK-MEL-5 melanoma) | TGI (SN12C renal) | TGI (EKVX NSCLC) | TGI (HCC-2998 colon) | TGI (MDA-MB-231 breast) | TGI (K-562 leukemia) | TGI (NCI-H226 lung) | TGI (SF-295 CNS) | TGI (HCT-116 colon) | TGI (A549 NSCLC) | TGI (HCT-15 colon) | TGI (DU-145 prostate) | TGI (MDA-MB-435) | TGI (HL-60(TB) leukemia) | TGI (LOX IMVI melanoma) | TGI (KM12 colon) | TGI (OVCAR-4 ovarian) | TGI (SK-MEL-28 melanoma) | TGI (T-47D breast) | TGI (RXF 393 renal) | TGI (SK-OV-3 ovarian)
inactive: GI50 (A498 renal) 83.9 µM | GI50 (SK-MEL-2 melanoma) > 100 µM | GI50 (OVCAR-8 ovarian) 35 µM | GI50 (SNB-19 CNS) > 100 µM | GI50 (CAKI-1 renal) 15.3 µM | GI50 (PC-3 prostate) 11.5 µM | GI50 (SF-268 CNS) 69.2 µM | GI50 (MALME-3M melanoma) > 100 µM | GI50 (NCI-H460 lung) 5.37 µM | GI50 (OVCAR-5 ovarian) > 100 µM | GI50 (NCI-H23 lung) > 100 µM | GI50 (COLO 205 colon) 76.1 µM | GI50 (ACHN renal) 55.5 µM | GI50 (786-0 renal) > 100 µM | GI50 (OVCAR-3 ovarian) > 100 µM | GI50 (CCRF-CEM leukemia) 12.4 µM | GI50 (HOP-92 NSCLC) 7.07 µM | GI50 (NCI-H522 lung) > 100 µM | GI50 (HT29 colon) 51.2 µM | GI50 (BT-549 breast) 28.5 µM | GI50 (MCF7 breast) > 100 µM | GI50 (IGROV1 ovarian) 6.48 µM | GI50 (SF-539 CNS) 20.7 µM | GI50 (M14 melanoma) > 100 µM | GI50 (UACC-62 melanoma) 73.8 µM | GI50 (SW-620 colon) > 100 µM | GI50 (UACC-257 melanoma) > 100 µM | GI50 (SR leukemia) 4.4 µM | GI50 (UO-31 renal) 3.82 µM | GI50 (RPMI-8226 leukemia) 13.4 µM | GI50 (U251 CNS) 9.31 µM | GI50 (MOLT-4 leukemia) 6.82 µM | GI50 (TK-10 renal) 12.8 µM | GI50 (HOP-62 NSCLC) > 100 µM | GI50 (NCI/ADR-RES ovarian) 41.9 µM | GI50 (SNB-75 CNS) 15.5 µM | GI50 (SK-MEL-5 melanoma) 12.4 µM | GI50 (SN12C renal) > 100 µM | GI50 (EKVX NSCLC) > 100 µM | GI50 (HCC-2998 colon) 98.7 µM | GI50 (MDA-MB-231 breast) 42.1 µM | GI50 (K-562 leukemia) 11.2 µM | GI50 (NCI-H226 lung) 11.8 µM | GI50 (SF-295 CNS) 15.4 µM | GI50 (HCT-116 colon) 8.37 µM | GI50 (A549 NSCLC) 92.8 µM | GI50 (HCT-15 colon) 1.45 µM | GI50 (DU-145 prostate) > 100 µM | GI50 (MDA-MB-435) > 100 µM | GI50 (HL-60(TB) leukemia) 34.2 µM | GI50 (LOX IMVI melanoma) 8.91 µM | GI50 (KM12 colon) 48.7 µM | GI50 (OVCAR-4 ovarian) > 100 µM | GI50 (SK-MEL-28 melanoma) > 100 µM | GI50 (T-47D breast) 38.3 µM | GI50 (RXF 393 renal) > 100 µM | GI50 (SK-OV-3 ovarian) > 100 µM

O=C(Nc1ccc(-c2nc(N3CCOCC3)c3cccn3n2)cc1)Nc1cccnc1
0.328 µM: TGI (A498 renal)
27.7 µM: TGI (HCT-116 colon)
6.27 µM: TGI (NCI/ADR-RES ovarian)
0.975 µM: TGI (EKVX NSCLC)
active: GI50 (A498 renal) 0.0475 µM | GI50 (SK-MEL-2 melanoma) 0.333 µM | GI50 (OVCAR-8 ovarian) 0.0491 µM | GI50 (CAKI-1 renal) 0.185 µM | GI50 (PC-3 prostate) 0.0512 µM | GI50 (SF-268 CNS) 0.248 µM | GI50 (MALME-3M melanoma) 0.082 µM | GI50 (NCI-H460 lung) 0.142 µM | GI50 (OVCAR-5 ovarian) 0.071 µM | GI50 (NCI-H23 lung) 0.269 µM | GI50 (ACHN renal) 0.189 µM | GI50 (HS 578T breast) 0.0545 µM | GI50 (786-0 renal) 0.178 µM | GI50 (OVCAR-3 ovarian) 0.152 µM | GI50 (CCRF-CEM leukemia) 0.0547 µM | GI50 (NCI-H522 lung) 0.125 µM | GI50 (HT29 colon) 0.3 µM | GI50 (BT-549 breast) 0.145 µM | GI50 (MCF7 breast) 0.0483 µM | GI50 (IGROV1 ovarian) 0.0767 µM | GI50 (SF-539 CNS) 0.0396 µM | GI50 (SW-620 colon) 0.0524 µM | GI50 (SR leukemia) 0.245 µM | GI50 (UO-31 renal) 0.0619 µM | GI50 (RPMI-8226 leukemia) 0.138 µM | GI50 (U251 CNS) 0.18 µM | GI50 (MOLT-4 leukemia) 0.23 µM | GI50 (HOP-62 NSCLC) 0.336 µM | GI50 (NCI/ADR-RES ovarian) 0.393 µM | GI50 (SNB-75 CNS) 0.0432 µM | GI50 (SK-MEL-5 melanoma) 0.196 µM | GI50 (EKVX NSCLC) 0.216 µM | GI50 (HCC-2998 colon) 0.253 µM | GI50 (K-562 leukemia) 0.195 µM | GI50 (NCI-H226 lung) 0.141 µM | GI50 (SF-295 CNS) 0.102 µM | GI50 (HCT-116 colon) 0.041 µM | GI50 (A549 NSCLC) 0.244 µM | GI50 (HCT-15 colon) 0.143 µM | GI50 (DU-145 prostate) 0.212 µM | GI50 (MDA-MB-435) 0.225 µM | GI50 (HL-60(TB) leukemia) 0.359 µM | GI50 (KM12 colon) 0.162 µM | GI50 (OVCAR-4 ovarian) 0.118 µM | GI50 (RXF 393 renal) 0.0345 µM | GI50 (SK-OV-3 ovarian) 0.0987 µM
1.49 µM: TGI (MCF7 breast)
0.359 µM: TGI (RXF 393 renal)
6.8 µM: TGI (MOLT-4 leukemia)
1.1 µM: TGI (NCI-H226 lung)
> 100 µM: TGI (SK-MEL-2 melanoma) | TGI (OVCAR-8 ovarian) | TGI (NCI-H460 lung) | TGI (OVCAR-5 ovarian) | TGI (NCI-H23 lung) | TGI (CCRF-CEM leukemia) | TGI (NCI-H522 lung) | TGI (HT29 colon) | TGI (SW-620 colon) | TGI (U251 CNS) | TGI (HOP-62 NSCLC) | TGI (HCC-2998 colon) | TGI (K-562 leukemia) | TGI (A549 NSCLC) | TGI (HCT-15 colon) | TGI (DU-145 prostate) | TGI (MDA-MB-435) | TGI (HL-60(TB) leukemia)
1.98 µM: TGI (786-0 renal)
1.27 µM: TGI (OVCAR-4 ovarian)
3.85 µM: TGI (CAKI-1 renal)
0.296 µM: TGI (SF-539 CNS)
3.64 µM: TGI (ACHN renal)
0.581 µM: TGI (SF-295 CNS)
1.36 µM: TGI (RPMI-8226 leukemia)
0.546 µM: TGI (UO-31 renal)
15 µM: TGI (SR leukemia)
40.8 µM: TGI (UACC-257 melanoma)
2.27 µM: TGI (PC-3 prostate)
0.64 µM: TGI (SNB-75 CNS)
87.6 µM: TGI (SF-268 CNS)
0.596 µM: TGI (SK-OV-3 ovarian)
1.06 µM: TGI (OVCAR-3 ovarian)
0.847 µM: TGI (SK-MEL-5 melanoma)
16.7 µM: TGI (KM12 colon)
0.416 µM: TGI (HS 578T breast)
0.951 µM: TGI (BT-549 breast)
0.464 µM: TGI (IGROV1 ovarian)
0.0637 µM: TGI (HOP-92 NSCLC)
0.471 µM: TGI (MALME-3M melanoma)
inactive: GI50 (UACC-257 melanoma) 0.428 µM
